Earlier results on three compounds are cited in patent US20140107223A1, “TOPICAL UBIQUINOL SUPPLEMENT SKIN CARE COMPOSITIONS” (WHITEHILL ORAL TECHNOLOGIES, INC., priority 2012, published 2014).

The conditions of data set [1]: topical once weekly via syringe for six weeks, combined with mechanical debridement.
The next data set relates to CRP concentrations. The following applies: dietary supplementation, healthy baboons.
Data set [2] has as its system human monocytic cellline THP-1. The following applies: LPS-stimulated THP-1.
The conditions of data set [3]: 150 mg capsule/day for two months.
Experiment in data set [4]: not given
This is another data set of the same source.

On to `COC1=C(OC)C(=O)C(C/C=C(\C)CC/C=C(\C)CC/C=C(\C)CC/C=C(\C)CC/C=C(\C)CC/C=C(\C)CC/C=C(\C)CC/C=C(\C)CC/C=C(\C)CCC=C(C)C)=C(C)C1=O` [CoQ10, coenzyme Q10], for which the bleeding on probing entry in data set [1] is recorded as “no bleeding at six weeks”. The “baseline inflammatory status indicated by CRP concentrations” value in the data set with CRP concentrations is reported as “significantly enhances this anti-inflammatory effect”.

For `COc1c(O)c(C)c(C/C=C(\C)CC/C=C(\C)CC/C=C(\C)CC/C=C(\C)CC/C=C(\C)CC/C=C(\C)CC/C=C(\C)CC/C=C(\C)CC/C=C(\C)CCC=C(C)C)c(O)c1OC` [UBIQUINOL], the “effect on inflammatory cytokines and chemokines in vitro” value in data set [2] is listed as “anti-inflammatory effects”. Further, the bioavailability versus ubiquinone result (oral) was “greater bioavailability than ubiquinone”. Also, under “oral administration”, the “time to steady-state concentrations” value was “two”. The “time required to reach peak concentration” value (oral administration, absorption from the gastrointestinal tract) was “approximately 6 hours”. The peak blood values (oral, 150 mg per day in a softgel, within 28 days) was 3.84 µg/mL. The “effect on oral environment for periodontal disease” value in data set [3] is “is effective in improving oral environment for periodontal disease”. The water solubility entry in data set [4] is recorded as “less than 0.1 mg/ml”.

Vitamin E: the “baseline inflammatory status indicated by CRP concentrations” value in the data set with CRP concentrations is given as “reduces baseline inflammatory status”.
